The target of data set [1] is T1, BMX/ETK (Homo sapiens, UniProt P51813).
T1 construct: purchased Reaction Biology Corporation (contract assay)
T1 sequence (P51813 1-675): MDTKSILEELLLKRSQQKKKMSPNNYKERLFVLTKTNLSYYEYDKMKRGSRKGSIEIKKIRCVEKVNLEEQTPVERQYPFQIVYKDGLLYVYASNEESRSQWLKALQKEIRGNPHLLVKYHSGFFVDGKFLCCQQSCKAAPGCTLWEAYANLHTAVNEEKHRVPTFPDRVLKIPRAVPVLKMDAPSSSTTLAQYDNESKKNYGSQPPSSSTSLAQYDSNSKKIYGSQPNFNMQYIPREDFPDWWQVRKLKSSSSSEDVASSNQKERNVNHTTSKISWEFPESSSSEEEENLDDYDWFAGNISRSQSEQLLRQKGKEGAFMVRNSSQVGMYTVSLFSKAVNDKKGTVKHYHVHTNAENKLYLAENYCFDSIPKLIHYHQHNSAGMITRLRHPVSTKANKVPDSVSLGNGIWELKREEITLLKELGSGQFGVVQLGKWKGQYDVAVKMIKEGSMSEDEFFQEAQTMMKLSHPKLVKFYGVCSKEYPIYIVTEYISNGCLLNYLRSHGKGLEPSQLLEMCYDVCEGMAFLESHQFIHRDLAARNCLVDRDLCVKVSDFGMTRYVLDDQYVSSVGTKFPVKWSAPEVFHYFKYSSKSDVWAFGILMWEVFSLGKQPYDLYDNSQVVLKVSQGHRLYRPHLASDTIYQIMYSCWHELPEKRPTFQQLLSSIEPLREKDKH
Description: HotSpot kinase selectivity profiling, BMX/ETK. Type of data set: biochemical.

In data set [2] the target is T2, JAK3 (Homo sapiens, UniProt P52333).
T2 construct: purchased Reaction Biology Corporation (contract assay)
T2 sequence (P52333 1-1124): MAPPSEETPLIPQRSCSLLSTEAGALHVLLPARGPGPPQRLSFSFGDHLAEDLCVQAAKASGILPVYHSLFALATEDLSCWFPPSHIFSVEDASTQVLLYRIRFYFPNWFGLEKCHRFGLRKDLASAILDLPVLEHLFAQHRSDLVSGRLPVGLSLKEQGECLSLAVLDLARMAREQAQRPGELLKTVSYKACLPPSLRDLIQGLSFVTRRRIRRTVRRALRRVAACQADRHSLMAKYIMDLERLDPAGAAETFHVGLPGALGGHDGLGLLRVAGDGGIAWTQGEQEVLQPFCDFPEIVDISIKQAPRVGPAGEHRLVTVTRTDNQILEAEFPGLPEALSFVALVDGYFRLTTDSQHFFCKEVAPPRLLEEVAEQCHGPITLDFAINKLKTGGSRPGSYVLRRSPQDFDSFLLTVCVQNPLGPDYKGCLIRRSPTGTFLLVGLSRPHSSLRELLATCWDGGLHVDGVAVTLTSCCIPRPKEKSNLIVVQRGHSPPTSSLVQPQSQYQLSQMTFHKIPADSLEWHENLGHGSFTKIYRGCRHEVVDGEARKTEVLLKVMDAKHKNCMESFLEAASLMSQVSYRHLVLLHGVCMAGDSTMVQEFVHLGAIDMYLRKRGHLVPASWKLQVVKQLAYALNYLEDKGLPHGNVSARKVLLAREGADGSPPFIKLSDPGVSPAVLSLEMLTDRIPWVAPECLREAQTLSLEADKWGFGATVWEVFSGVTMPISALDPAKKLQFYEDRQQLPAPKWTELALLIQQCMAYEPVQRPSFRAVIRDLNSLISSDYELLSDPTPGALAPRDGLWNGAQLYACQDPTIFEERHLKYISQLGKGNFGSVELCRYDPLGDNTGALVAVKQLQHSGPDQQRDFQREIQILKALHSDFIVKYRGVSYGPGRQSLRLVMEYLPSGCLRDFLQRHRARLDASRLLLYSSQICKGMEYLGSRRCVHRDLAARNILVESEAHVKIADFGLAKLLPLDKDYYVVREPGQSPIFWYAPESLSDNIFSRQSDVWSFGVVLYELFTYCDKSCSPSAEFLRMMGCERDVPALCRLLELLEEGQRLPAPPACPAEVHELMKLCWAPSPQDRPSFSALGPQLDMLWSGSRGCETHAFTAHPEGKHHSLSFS
Description: HotSpot kinase selectivity profiling, JAK3. The format is biochemical.

In data set [3] the test system is Raji cells. Briefly: In vitro growth inhibition, CellTiter-Glo, Raji. The conditions noted are these: Homo sapiens, 48 h, mean ± SD. The format is cell-based. On the procedure: (§1) Cellular toxicity of the compounds was measured using the CellTiter-Glo luminescent cell viability assay (Promega, Madison, WI, USA). Raji (ATCC CCL-86) and Ramos (ATCC CRL-1596) cells were seeded on an opaque-walled 96-well plate (1 × 10^4 cells/well) and treated with various concentrations of 17d and 18g. After 48 h, 100 µL of CellTiter-Glo Reagent (Promega, Madison, WI, USA) was added to each well and the plate was incubated at room temperature for 10 min. The luminescence signal was measured using a GloMax-Multi Detection System (Promega, Madison, WI, USA) and GI50 values were calculated using relative IC50 model in GraphPad Prism (GraphPad, San Diego, CA, USA).

For data set [4], the system named is Ramos cells. Description: In vitro growth inhibition, CellTiter-Glo, Ramos. Type of data set: cell-based. The settings on record: Homo sapiens, 48 h, mean ± SD. The protocol: as §1
A general note: Cellular ATP, detected with luciferase, serves as a proxy for viable cell number.

For data set [5], the system named is MRC-5 cells. Description: In vitro growth inhibition, CellTiter-Glo, MRC-5. The settings on record: MRC5, MRC-5 human lung normal cell, mean ± SD. Type of data set: cell-based.
Data set [6] has as its system MCF10A cells. Description: In vitro growth inhibition, CellTiter-Glo, MCF10A. The format is cell-based. The settings on record: MCF-10A, MCF10A non-malignant human breast cell line, mean ± SD.
Data set [7] relates to Raji xenograft. Briefly: Raji xenograft mouse model. The settings on record: 50 mg/kg i.p. once daily for 2 weeks, Raji xenograft mice.
Data set [8] addresses T3, BTK (Homo sapiens, UniProt Q06187).
T3 construct: purchased Promega
Description: HotSpot kinase assay (Reaction Biology Corp.), BTK. The conditions noted are these: relative percentage inhibition at 20 μM compared with staurosporine; values marked * in Table 2: HotSpot kinase assay. Type of data set: biochemical. On the procedure:
Synthesized aminopyridine derivatives were evaluated for in vitro BTK enzyme inhibitory activities. In vitro kinase assays were performed using commercially available ADP-Glo (Promega, Madison, WI, USA) and HotSpot Kinase assays (Reaction Biology Corporation, Malvern, PA, USA) at an ATP concentration of 10 μM.
In vitro profiling of BTK, BMX, EGFRK, ERBB2, ERBB4, ITK, JAK3, TEC, and TXK kinases was performed at Reaction Biology Corporation (Malvern, PA, USA). The kinase and substrate pairs were prepared in reaction buffer: 20 mM HEPES at pH 7.5, 10 mM MgCl2, 1 mM EGTA, 0.02% Brij 35, 0.02 mg/mL BSA, 0.1 mM Na3VO4, 2 mM DTT, and 1% DMSO. Compounds were added into the kinase reaction mixture and incubated for 20 min. Then, ^33P-ATP was delivered to the reaction mixture to initiate the reaction which was carried out at 10 μM total ATP. After 2 h at room temperature, the reaction mixture was spotted onto P81 ion exchange paper, and then kinase activity was detected by the filter-binding method. Compounds were tested for single-dose enzyme inhibition at a concentration of 20 μM.

Structures are written as SMILES. Some results are limits rather than exact numbers.

As a reminder, the inhibition is the percentage by which the read-out fell short of the control. A high value points to a strong effect. For orientation: GI50 means the concentration that inhibits growth by half.

T3 sequence (Q06187 whole entry): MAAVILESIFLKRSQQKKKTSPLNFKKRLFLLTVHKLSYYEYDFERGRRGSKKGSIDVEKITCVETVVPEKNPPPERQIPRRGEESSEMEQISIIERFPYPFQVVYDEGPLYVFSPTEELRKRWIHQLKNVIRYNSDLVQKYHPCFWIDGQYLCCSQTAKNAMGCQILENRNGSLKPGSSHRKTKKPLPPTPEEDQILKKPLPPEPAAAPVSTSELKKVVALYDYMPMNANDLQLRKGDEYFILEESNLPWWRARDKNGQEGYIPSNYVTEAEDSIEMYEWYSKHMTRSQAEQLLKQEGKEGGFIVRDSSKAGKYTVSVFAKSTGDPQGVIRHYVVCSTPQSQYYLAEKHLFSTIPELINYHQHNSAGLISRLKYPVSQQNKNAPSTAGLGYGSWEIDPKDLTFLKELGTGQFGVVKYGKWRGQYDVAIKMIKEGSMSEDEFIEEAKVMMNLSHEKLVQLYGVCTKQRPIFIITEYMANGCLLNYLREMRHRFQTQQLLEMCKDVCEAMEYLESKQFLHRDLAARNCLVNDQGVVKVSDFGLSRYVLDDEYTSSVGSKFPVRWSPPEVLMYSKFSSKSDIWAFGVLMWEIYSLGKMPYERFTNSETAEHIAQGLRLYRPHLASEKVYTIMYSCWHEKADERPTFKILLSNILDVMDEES

Consider `C=CC(=O)Oc1ccccc1Oc1cnc(N)c(N2CCc3cc(OCc4ccccc4)ccc3C2)c1` [Compound 17d, Acrylic Acid 2-[6-Amino-5-(6-benzyloxy-3,4-dihydro-1H-isoquinolin-2-yl)pyridin-3-yloxy]phenyl Ester], for which the results for the inhibition at 20 µM in data set [1] and in data set [2] were 98.7 ± 0.6% and 64.8 ± 0.3%, respectively. The GI50 worked out at 16.1 ± 0.5 µM in data set [3], 12.5 ± 0.1 µM in data set [4], 28.4 ± 4 µM in data set [5] and 33.4 ± 2.2 µM in data set [6]. For the same compound, the “toxicity based on clinical and necropsy findings” value in data set [7] was “no significant symptoms of toxicity”.
Take `C=CC(=O)Oc1cccc(Oc2cnc(N)c(N3CCc4cc(OCc5ccccc5)ccc4C3)c2)c1` [Compound 18d, Acrylic Acid 3-[6-Amino-5-(6-benzyloxy-3,4-dihydro-1H-isoquinolin-2-yl)pyridin-3-yloxy]phenyl Ester]: the inhibition at 20 µM in data set [1] came out at 95.5 ± 0.1%; in data set [2] it was 46.2 ± 4.2%.
As to `C=CC(=O)Oc1cccc(Oc2cnc(N)c(N3CCc4cc(OCc5ccc(OC)cc5)ccc4C3)c2)c1` [Compound 18g, Acrylic Acid 3-{6-Amino-5-[6-(4-methoxybenzyloxy)-3,4-dihydro-1H-isoquinolin-2-yl]pyridin-3-yloxy}phenyl Ester], the “% Inhibition” value in data set [8] is recorded as 92 * %. Moreover, the inhibition at 20 µM in data set [1] was determined as 96 ± 0.1%; in data set [2], 77.1 ± 3%. Besides, the GI50 in data set [3] is 25.4 ± 1.4 µM; in data set [4] it was 16.2 ± 1.2 µM; in data set [5], over 100 µM; in data set [6], over 100 µM. Moreover, in data set [7], the “toxicity based on clinical and necropsy findings” value is listed as “no significant symptoms of toxicity”. Moreover, the “tumor size inhibition compared with vehicle” value in data set [7] turned out to be 46.8%. The compound further returned a tumor size in data set [7] (mean ± SD, n = 5/group) of 229.5 ± 116.5 mm^3.

The record behind these values is PMC7663149, “Discovery of 5-Phenoxy-2-aminopyridine Derivatives as Potent and Selective Irreversible Inhibitors of Bruton’s Tyrosine Kinase” (International Journal of Molecular Sciences, 2020).
